Where a SMILES comes first, the peptide text is derived from it. [ ]: non-standard residue; d: D form. The star is where a group is joined. ξ: configuration not given here. NMeW = CN[C@@H](Cc1c[nH]c2ccccc12)C(=O)O; Benzoyl(3,5-F2) = O=C(c1cc(F)cc(F)c1)*; NMeIle(3ξ) = CCC(C)[C@H](NC)C(=O)O; NMeF = CN[C@@H](Cc1ccccc1)C(=O)O; NMeQ = CN[C@@H](CCC(N)=O)C(=O)O; NMeL = CN[C@@H](CC(C)C)C(=O)O; NMeA = CN[C@@H](C)C(=O)O; Dab = NCC[C@H](N)C(=O)O; Butyryl = CCCC(=O)*; NHOH = ON* Where only a bound is given, the exact number is not on record here.

Data set [1] in a line: Parallel artificial membrane permeability assay (PAMPA), Blood-Brain Barrier. Conditions: initial concentration 200 μM, pH 7.4, 4 hours; for Papp at 4 h, 200 µM: pig, read-out: Effective permeability Pe. The class given is in vitro ADME. The protocol:
Parallel Artificial Membrane Permeability Assay (PAMPA)
Parallel artificial membrane permeability assay (PAMPA) described in Kansy et al., J. M. Chem. 1998; 41(7):1007-10 was used here to determine the capacity of compounds to cross the Blood-Brain Barrier (BBB) by passive diffusion (Di L et al., Eur. J. Med. Chem. 2003; 38(3):223-32). The effective permeability (Pe) of the compounds was measured at an initial concentration of 200 μM. The buffer solution was prepared from a commercial concentrated one following the manufacturer's instructions. pH was adjusted to 7.4 using a 0.5 M NaOH solution. A stock solution of new compound was prepared in DMSO and diluted with buffer solution to a final 200 μM concentration (0.5% DMSO content). The PAMPA sandwich was separated and each donor well was filled with […] of the compound solution. The acceptor plate was placed into the donor plate, ensuring that the underside of the membrane was in contact with buffer. 4 μL of the mixture of phospholipids (20 mg/ml) in dodecane was added to the filter of each well, and 200 μL of buffer solution was added to the each acceptor well. The plate was covered and incubated at room temperature in a saturated humidity atmosphere for 4 hours under orbital agitation at 100 rpm. After 4 hours, the contents of the acceptor and donor compartments were analyzed by HPLC: 150 μL of each well from the donor plate and 150 μL of each well from the acceptor plate were transferred to HPLC vials, injecting each sample into a reverse-phase C18 column (150 mm×4.6 mm×5 μm, 100 Å) (100 μL/injection from the acceptor wells, 10 μL/injection from the donor wells and for t0 references). Transport was also confirmed using mass spectrometry (MALDI-TOF).
The phospholipid mixture used was a porcine polar brain lipid extract, provided by Avanti polar lipids, with the following composition: 12.6% phosphatidylcholine (PC), 33.1% phosphatidylethanolamine (PE), 18.5% phosphatidylserine (PS), 4.1% phosphatidylinositol (PI), 0.8% phosphatidic acid and 30.9% of other compounds.
The effective permeability (Pe) after 4 hours was calculated using equation 2 and the percentage of transport (T %) was calculated using equation 3: […]
Ca(t) is the compound concentration in the acceptor well at time t
And Cd(t0) is the compound concentration in the donor well at t0.

Data set [2] has as its target MMP-2 (Homo sapiens (Human), UniProt P08253). Put plainly: MMP-2 inhibition assay (fluorimetric, DQ gelatin substrate). The format is biochemical. Conditions: recombinant MMP-2 (CHO cells) 85 ng/mL, DQ gelatin 50 μg/mL, 2 hours at room temperature, pH 7.6. The protocol:
(§1) All the experiments were done in 1× reaction buffer, which was obtained from a 10× reaction buffer solution. The content of the 10× reaction buffer was: 50 mL of 0.5 M Tris-HCl, 1.5 M NaCl, 50 mM CaCl2 and 2 mM sodium azide at pH 7.6. To obtain the 1× reaction buffer 4 mL of the 10× reaction buffer were diluted in 36 mL of H2O.
Recombinant MMP-2 expressed in Chinese hamster ovary (CHO) cells was obtained from Merck-Millipore (catalog number PF023-5UG). DQ gelatin from pig skin fluorescein conjugated (MMP-2 substrate) was obtained from Life Technologies (catalog number E12055).
Preparation of the MMP-2 for the activity assay: MMP-2 was provided as a stock solution (0.1 mg/mL). The enzyme was diluted in 1× reaction buffer to a final concentration of 5 μg/mL.
Preparation of the DQ gelatin (substrate) solution for the activity assay: the solid form of the substrate was dissolved in water in order to obtain a stock solution of 1 mg/mL.
Procedure: The enzymatic assays were performed in 96-well microtiter plate, which allowed simultaneous monitoring of multiple reactions. For each reaction, 86.3 μL of 1× reaction buffer (pH 7.6), 1.7 μL of MMP-2 (final concentration 85 ng/mL) and 2 μL of the corresponding new compound were added to each well. A stock solution of new compound was prepared in DMSO (100 mM), and dilutions were prepared from this stock solution with DMSO. Finally, to the mixture contained in each well 10 μL of the substrate were added (final concentration 50 μg/mL). The reaction was incubated for 2 hours at room temperature in an orbital shaker (100 rpm).
The inhibitory activity of the new compound was measured fluorimetrically. The excitation and emission wavelengths were 483 and 525 nm, respectively.
Inhibitory activity at several concentration points (ranging from 100 pM to 200 μM MMP) were measured for each compound. The inhibitory activity on MMP-2 and MMP-9 was calculated according to eq 1. For each new compound, the fluorescence in the presence (a) and in the absence (b) of the corresponding MMP was measured. The maximum fluorescence (0% inhibitory activity) was obtained from a sample of the corresponding MMP in the absence of inhibitory compounds. To estimate the inhibitory potency of the novel compounds, activities were plotted against the log concentration of the compound, adjusting to a sigmoid curve using GraphPad Prism software, and the IC50 value, defined as the concentration of compound required to inhibit 50% of the corresponding MMP activity, was determined from resulting curve.
a corresponds to fluorescence intensity in the presence of substrate+test compound+MMP
b corresponds to the fluorescence intensity in the presence of substrate+tested compound
c corresponds to the fluorescence intensity in the presence of substrate+MMP
d corresponds to the fluorescence intensity of the presence of substrate

Data set [3] concerns the target MMP-3 (Homo sapiens (Human), UniProt P08254). Put plainly: MMP-3 inhibition assay (fluorogenic peptide substrate). The class given is biochemical. Conditions: recombinant MMP-3 7.7 nM, Mca-RPKPVE-Nval-WRK(Dnp)-NH2 10 μM, 4 hours at room temperature; tested at 1, 10, 100 and 200 μM. The method, then: as §1
Recombinant MMP-3 expressed in E. Coli was obtained from Merck-Millipore (catalog number 44217). Mca-RPKPVE-Nval-WRK(Dnp)-NH2 (fluorogenic peptide substrate) was obtained from R&D Systems (catalog number ES002).
Preparation of the MMP-3 for the activity assay: MMP-3 was provided as a stock solution (0.1 mg/mL). The enzyme was diluted in water to a final concentration of 0.005 mg/mL.
MMP-3 peptide substrate was provided as a stock solution in DMSO (4.5 mM). For the assay, the substrate was diluted 1× reaction buffer to a concentration of 100 μM.
Procedure: The enzymatic assays were performed in 96-well microtiter plate, which allowed simultaneous monitoring of multiple reactions. For each reaction, 84.6 μL of 1× reaction buffer (pH 7.6), 3.4 μL of MMP-3 (final concentration 7.7 nM) and 2 μL of the corresponding new compound were added to each well. A stock solution of new compound was prepared in DMSO (100 mM), and dilutions were prepared from this stock solution with DMSO. Finally, to the mixture contained in each well 10 μL of the substrate were added (final concentration 10 μM). The reaction was incubated for 4 hours at room temperature in an orbital shaker (90 rpm).
The inhibitory activity of the new compound was measured fluorimetrically. The excitation and emission wavelengths were 320 and 405 nm, respectively.
Inhibitory activity at several concentration points (1, 10, 100 and 200 μM) were measured for each compound. The inhibitory activity on MMP-1, MMP-3 and MMP-7 was calculated according to eq 1 and The IC50 value was calculated as explained above for MMP-2 and MMP-9.

Sequence of MMP-2 (P08253 110-660): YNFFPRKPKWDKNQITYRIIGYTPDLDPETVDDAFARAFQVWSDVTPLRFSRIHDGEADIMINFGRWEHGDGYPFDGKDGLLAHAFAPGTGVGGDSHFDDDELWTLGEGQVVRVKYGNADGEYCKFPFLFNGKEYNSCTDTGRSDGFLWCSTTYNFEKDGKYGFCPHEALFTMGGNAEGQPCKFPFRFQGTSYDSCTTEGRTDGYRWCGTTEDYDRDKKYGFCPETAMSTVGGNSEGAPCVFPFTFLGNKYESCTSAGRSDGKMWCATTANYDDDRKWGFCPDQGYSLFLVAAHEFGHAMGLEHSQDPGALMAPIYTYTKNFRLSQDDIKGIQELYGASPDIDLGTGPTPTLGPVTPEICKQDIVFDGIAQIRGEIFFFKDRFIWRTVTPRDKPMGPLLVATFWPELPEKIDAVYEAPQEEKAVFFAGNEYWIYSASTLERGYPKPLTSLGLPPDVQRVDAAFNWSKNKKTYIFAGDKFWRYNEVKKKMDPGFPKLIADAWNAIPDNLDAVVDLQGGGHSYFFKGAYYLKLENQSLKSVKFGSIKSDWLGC
Sequence of MMP-3 (P08254 100-477): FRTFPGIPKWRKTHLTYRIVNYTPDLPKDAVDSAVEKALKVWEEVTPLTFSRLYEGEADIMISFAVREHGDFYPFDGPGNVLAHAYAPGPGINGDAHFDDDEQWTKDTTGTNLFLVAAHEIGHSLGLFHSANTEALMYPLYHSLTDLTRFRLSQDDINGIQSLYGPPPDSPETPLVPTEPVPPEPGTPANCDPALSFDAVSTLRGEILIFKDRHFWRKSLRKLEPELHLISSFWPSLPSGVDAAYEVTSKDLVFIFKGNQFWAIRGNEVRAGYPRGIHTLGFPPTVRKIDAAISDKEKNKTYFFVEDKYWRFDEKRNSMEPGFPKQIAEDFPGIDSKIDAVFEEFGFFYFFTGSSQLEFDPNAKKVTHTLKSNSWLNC

Consider `CCC(C)[C@@H](C(=O)N[C@@H](CCNC(=O)c1cc(F)cc(F)c1)C(=O)NO)N(C)C(=O)[C@@H]1CC(F)(F)CN1C(=O)CCCOc1ccccc1` (stereo partly drawn) [Example 10, (2S)—N-[(1S)-1-[[(1S)-3-[(3,5-difluorobenzoyl)amino]-1-(hydroxycarbamoyl)propyl]carbamoyl]-2-methyl-butyl]-4,4-difluoro-N-methyl-1-(4-phenoxybutanoyl)pyrrolidine-2-carboxamide], for which, in data set [1], the “percentage of transport % T” value is 13.6% and the Papp at 4 h, 200 µM worked out at 7.6 ×10⁻⁶ cm/s. Also, the IC50 in data set [2] was found to be 0.037 µM. Also, the IC50 in data set [3] came out at 160 µM.
For `CCCCCC(=O)N1CCC[C@H]1C(=O)N(C)[C@H](C(=O)N[C@@H](CCNC(=O)c1cc(F)cc(F)c1)C(=O)NO)C(C)CC` (stereo partly drawn) [Example 3, (2S)—N-[(1S)-1-[[(1S)-3-[(3,5-difluorobenzoyl)amino]-1-(hydroxycarbamoyl)propyl]carbamoyl]-2-methyl-butyl]-1-hexanoyl-N-methyl-pyrrolidine-2-carboxamide], in that order: 9.3%, 2.3 ×10⁻⁶ cm/s, 0.081 µM and 25.4 µM.
Take `CCC(C)[C@@H](C(=O)N[C@@H](CCNC(=O)c1cc(F)cc(F)c1)C(=O)NO)N(C)C(=O)[C@@H]1CCCN1C(=O)CCCOc1ccccc1` (stereo partly drawn) [Example 9, (2S)—N-[(1S)-1-[[(1S)-3-[(3,5-difluorobenzoyl)amino]-1-(hydroxycarbamoyl)propyl]carbamoyl]-2-methyl-butyl]-N-methyl-1-(4-phenoxybutanoyl)pyrrolidine-2-carboxamide]: in data set [1], the “percentage of transport % T” value is 9.9% and the Papp at 4 h, 200 µM was 5.2 ×10⁻⁶ cm/s. In addition, the IC50 in data set [2] stood at 0.362 µM. Besides, the IC50 in data set [3] is 3.2 µM.
Regarding `CCC(C)[C@@H](C(=O)N[C@@H](CCNC(=O)c1cc(F)cc(F)c1)C(=O)NO)N(C)C(=O)[C@@H]1CCCN1C(=O)[C@H](C)N(C)C(C)=O` (stereo partly drawn) [Example 12, (2 S)-1-[(2S)-2-[acetyl(methyl)amino]propanoyl]-N-[(1S)-1-[[(1S)-3-[(3,5-difluorobenzoyl)amino]-1-(hydroxycarbamoyl)propyl]carbamoyl]-2-methyl-butyl]-N-methyl-pyrrolidine-2-carboxamide] (Ac-[NMeA]P[NMeIle(3ξ)][Dab](Benzoyl(3,5-F2))-{NHOH}), the IC50 in data set [2] came to 0.021 µM; in data set [3], 157 µM.
With `CCCC(=O)N(C)[C@@H](Cc1c[nH]c2ccccc12)C(=O)N(C)[C@@H](CC(C)C)C(=O)N1CCC[C@H]1C(=O)N(C)[C@H](C(=O)N[C@@H](CCNC(=O)c1cc(F)cc(F)c1)C(=O)NO)C(C)CC` (stereo partly drawn) [Example 14, (2S)-1-[(2S)-2-[[(2S)-2-[butanoyl(methyl)amino]-3-(1H-indol-3-yl)propanoyl]-methyl-amino]-4-methyl-pentanoyl]-N-[(1S)-1-[[(1S)-3-[(3,5-difluorobenzoyl)amino]-1-(hydroxycarbamoyl)propyl]carbamoyl]-2-methyl-butyl]-N-methyl-pyrrolidine-2-carboxamide] (Butyryl-[NMeW][NMeL]P[NMeIle(3ξ)][Dab](Benzoyl(3,5-F2))-{NHOH}), the IC50 in data set [2] amounted to 0.116 µM. Also, in data set [3], the “MMP-3 IC50” value was less than 1 µM.
With `CCC(C)[C@@H](C(=O)N[C@@H](CCNC(=O)c1cc(F)cc(F)c1)C(=O)NO)N(C)C(=O)[C@@H]1CCCN1C(=O)CCN(C)C(C)=O` (stereo partly drawn) [Example 13, (2S)-1-[3-[acetyl(methyl)amino]propanoyl]-N-[(1S)-1-[[(1S)-3-[(3,5-difluorobenzoyl)amino]-1-(hydroxycarbamoyl)propyl]carbamoyl]-2-methyl-butyl]-N-methyl-pyrrolidine-2-carboxamide], the figures for the IC50 in data set [2] and in data set [3] were 1.15 µM and 200 µM, respectively.
Consider `CC(=O)N1CCC[C@H]1C(=O)N(C)[C@@H](CCC(N)=O)C(=O)N[C@@H](Cc1c[nH]c2ccccc12)C(=O)NO` [Example C20, (2S)-2-[[(2S)-1-acetylpyrrolidine-2-carbonyl]-methyl-amino]-N-[(1S)-2-(hydroxyamino)-1-(1H-indol-3-ylmethyl)-2-oxo-ethyl]pentanediamide, reference compound] (Ac-Pro-[NMeQ]-Trp-{NHOH}), for which the values for the concentration for half-maximal inhibition (IC50) in data set [2] and in data set [3] were 53 µM and more than 2000 µM, respectively.
For `CC(=O)N1CCC[C@H]1C(=O)N[C@@H](CCC(N)=O)C(=O)N[C@@H](Cc1c[nH]c2ccccc12)C(=O)NO` [Example C17, (2S)-2-[[(2S)-1-acetylpyrrolidine-2-carbonyl)amino]-N-[(1S)-2-(hydroxyamino)-1-(1H-indol-3-ylmethyl)-2-oxo-ethyl]pentanediamide, reference compound] (Ac-Pro-Gln-Trp-{NHOH}), in that order: 110 µM and 3.1 µM.
Regarding `CCC(C)[C@@H](C(=O)N[C@@H](CCNC(=O)c1cc(F)cc(F)c1)C(=O)NO)N(C)C(=O)[C@@H]1CCCN1C(=O)[C@H](Cc1ccccc1)N(C)C(C)=O` (stereo partly drawn) [Example 11, (2 S)-1-[(2S)-2-[acetyl(methyl)amino]-3-phenyl-propanoyl]-N-[(1S)-1-[[(1S)-3-[(3,5-difluorobenzoyl)amino]-1-(hydroxycarbamoyl)propyl]carbamoyl]-2-methyl-butyl]-N-methyl-pyrrolidine-2-carboxamide] (Ac-[NMeF]P[NMeIle(3ξ)][Dab](Benzoyl(3,5-F2))-{NHOH}), the half-maximal inhibitory concentration (IC50) in data set [2] is 0.174 µM; in data set [3], 200 µM.

Values taken from US10414797B2, “Gelatinase inhibitors and use thereof” (Iproteos S.L, priority 2015, dated 2019).
